Experimental data taken from ChEMBL document CHEMBL1201862, “PubChem BioAssay data set” (2004).
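In this assay, cells in 96-well plates receive the compound at five concentrations for 48 hours. Endpoints are linearly interpolated between the surrounding concentrations. GI50 = concentration required for 50% inhibition of growth.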 Calls of active or inactive are those of the source. Rule as the data show it: active = GI50 up to about 1.1 µM and inactive = higher.

Key:
Experiment in all cases: DTP human tumour cell line panel, 48 h
KM-20L2 = tested on: KM-20L2
DMS-273 = tested on: DMS-273
SNB-78 = tested on: SNB-78
DMS-114 = tested on: DMS-114
RXF 631 = tested on: RXF 631
XF498 = tested on: XF498
LXFL 529 = tested on: LXFL 529
DLD-1 = tested on: DLD-1
M19-MEL = tested on: M19-MEL

Structure (SMILES) | GI50 (KM-20L2) | GI50 (DMS-273) | GI50 (SNB-78) | GI50 (DMS-114) | GI50 (RXF 631) | GI50 (XF498) | GI50 (LXFL 529) | GI50 (DLD-1) | GI50 (M19-MEL)
COc1ncnc2c(NC3OC(CO)C(O)C3O)ncnc12 (centres undefined) | 0.407 µM (active) | 0.152 µM (active) | 0.668 µM (active) | 0.213 µM (active) | 0.3 µM (active) | 0.902 µM (active) | 0.505 µM (active) | 0.306 µM (active) | 
Clc1ccc(-c2nnc3c4nnc(-c5ccc(Cl)cc5Cl)n4c4ccccc4n23)c(Cl)c1 | > 100 µM (inactive) | > 100 µM (inactive) | 34.4 µM (inactive) | > 100 µM (inactive) |  | > 100 µM (inactive) | > 100 µM (inactive) | > 100 µM (inactive) | > 100 µM (inactive)
COC(=O)/C(=N\NC(N)=O)C(C#N)c1ccccc1 (centres undefined) | > 100 µM (inactive) |  | > 100 µM (inactive) | > 100 µM (inactive) |  | 75.5 µM (inactive) | > 100 µM (inactive) | > 100 µM (inactive) | > 100 µM (inactive)
Cc1c2ccccc2cc2ccc3oc([N+](=O)[O-])cc3c12 | > 100 µM (inactive) | > 100 µM (inactive) | > 100 µM (inactive) | > 100 µM (inactive) |  | > 100 µM (inactive) | > 100 µM (inactive) | > 100 µM (inactive) | > 100 µM (inactive)
CC(C)=CCC/C(C)=C/Cc1c(O)c(C)cc2c1[nH]c1cc(O)ccc12 | > 25 µM (inactive) | > 25 µM (inactive) | > 25 µM (inactive) | > 25 µM (inactive) |  |  | > 25 µM (inactive) | > 25 µM (inactive) | > 25 µM (inactive)
COc1ccc(/C=C2\N=C(c3ccccc3)OC2=O)c(OCc2ccccc2)c1 | > 100 µM (inactive) | 32.3 µM (inactive) |  | 31.1 µM (inactive) |  |  | 38.2 µM (inactive) | 17.7 µM (inactive) | 38.3 µM (inactive)
O/N=C1\CCCCC1C(NO)c1ccccc1 (centres undefined) | > 100 µM (inactive) | > 100 µM (inactive) | > 100 µM (inactive) | 67 µM (inactive) | > 100 µM (inactive) |  | > 100 µM (inactive) | > 100 µM (inactive) | > 100 µM (inactive)
O=C(Cc1nc2ccccc2o1)C(=O)Nc1cccc(Cl)c1 | > 100 µM (inactive) |  | > 100 µM (inactive) | > 100 µM (inactive) |  | > 100 µM (inactive) | > 100 µM (inactive) | > 100 µM (inactive) | > 100 µM (inactive)
CN(C)CCCn1cnc2ncccc2c1=O |  | > 100 µM (inactive) | > 100 µM (inactive) | 48.5 µM (inactive) |  | > 100 µM (inactive) | > 100 µM (inactive) | > 100 µM (inactive) | > 100 µM (inactive)
CC1(C)CC(=O)C(/C(=N/NC(=S)NN)C(=O)Nc2nc3ccc([N+](=O)[O-])cc3s2)C(=O)C1 | > 100 µM (inactive) |  | > 100 µM (inactive) | > 100 µM (inactive) |  | > 100 µM (inactive) | > 100 µM (inactive) | > 100 µM (inactive) | > 100 µM (inactive)
CC(Oc1ccc(OCC2CCCCC2)cc1)C(N)=O (centres undefined) |  | > 100 µM (inactive) | > 100 µM (inactive) | 73.6 µM (inactive) |  | > 100 µM (inactive) | > 100 µM (inactive) | > 100 µM (inactive) | > 100 µM (inactive)
O=C(C/C(=N\NC(=O)C[n+]1ccccc1)C(=O)Nc1nc2ccc([N+](=O)[O-])cc2s1)CC(c1ccccc1)c1c(O)c2ccccc2oc1=O (centres undefined) | > 100 µM (inactive) |  |  | > 100 µM (inactive) |  |  |  | > 100 µM (inactive) | > 100 µM (inactive)
O=C1CCC(=O)C12CCc1ccccc12 | > 100 µM (inactive) | > 100 µM (inactive) |  | > 100 µM (inactive) | > 100 µM (inactive) | > 100 µM (inactive) | > 100 µM (inactive) | > 100 µM (inactive) | > 100 µM (inactive)
CCOC(=O)C(Cc1c(C=O)[nH]c2ccccc12)(NC(=O)c1ccccc1)C(=O)OCC |  |  |  | 19.8 µM (inactive) |  | 16.4 µM (inactive) |  | 7.93 µM (inactive) | 16 µM (inactive)
c1ccc(CSc2nc3ccccc3nc2-c2cccs2)cc1 |  | > 100 µM (inactive) | > 100 µM (inactive) | > 100 µM (inactive) |  | > 100 µM (inactive) | > 100 µM (inactive) | > 100 µM (inactive) | > 100 µM (inactive)
Cc1ccccc1NC(=O)c1cc(-c2ccc([N+](=O)[O-])cc2)nc(S)n1 | > 100 µM (inactive) | > 100 µM (inactive) | > 100 µM (inactive) | > 100 µM (inactive) | > 100 µM (inactive) |  | > 100 µM (inactive) | > 100 µM (inactive) | 
O=C(/C=C/c1ccc(O)c(O)c1)OC1C[C@@](O)(C(=O)O)C[C@@H](O)[C@H]1OC(=O)/C=C/c1ccc(O)c(O)c1 (some centres undefined) | 37.1 µM (inactive) | > 100 µM (inactive) | > 100 µM (inactive) | > 100 µM (inactive) |  | > 100 µM (inactive) | > 100 µM (inactive) | > 100 µM (inactive) | > 100 µM (inactive)
COC(=O)C1=Cc2cc3c(cc2[C@H](c2ccc4c(c2)OCO4)C1C(=O)OC)OCO3 (some centres undefined) | > 100 µM (inactive) | > 100 µM (inactive) | > 100 µM (inactive) | > 100 µM (inactive) |  | > 100 µM (inactive) | > 100 µM (inactive) | 54.5 µM (inactive) | > 100 µM (inactive)
CCCCCCCCCCCC[C@@H](O)[C@H]1CC[C@H]([C@H](O)CCCC[C@H](O)CCCCC[C@@H](O)CC2=C[C@H](C)OC2=O)O1 | 2.19 µM (inactive) | 1.57 µM (inactive) | 3.95 µM (inactive) | < 0.01 µM (active) |  |  | 1.84 µM (inactive) | 2.67 µM (inactive) | 1.69 µM (inactive)
Cc1c[nH]c2c(O)cc3c(c12)[C@H](CCl)CN3C(=O)c1cc2cc(NC(=O)Nc3ccc4[nH]c(C(=O)N5C[C@@H](CCl)c6c5cc(O)c5[nH]cc(C)c65)cc4c3)ccc2[nH]1 [BIZELESIN] | < 0.001 µM (active) |  | < 0.001 µM (active) | < 0.001 µM (active) | < 0.001 µM (active) | < 0.001 µM (active) |  |  | < 0.001 µM (active)
